{"source": "paper PMC10720383", "about": "“Acetylcholinesterase Inhibition in Rats and Humans Following Acute Fenitrothion Exposure Predicted by Physiologically Based Kinetic Modeling-Facilitated Quantitative In Vitro to In Vivo Extrapolation” (Environmental Science & Technology, 2023)", "key": {"erythrocyte AChE [1]": {"test_system": "erythrocyte AChE", "assay": "PBK modeling-facilitated QIVIVE and BMD analysis, human", "method": "(§1) For toxicity prediction, the maximum blood FNO concentration was used as a dose metric relating AChE inhibition to acute FNT exposure (see section 3.3). Since the in vitro AChE inhibition under increasing FNO concentrations was tested in rat and human blood, these nominal concentrations could be used directly as the biological effective concentrations (in vivo maximum blood FNO concentrations), and no extra correction for differences in in vitro and in vivo protein binding was deemed necessary. Then the corresponding FNT dose levels resulting in these in vivo concentrations were derived via PBK modeling-facilitated reverse dosimetry. In doing so, the in vitro concentration–response relationship was converted to the predicted in vivo dose-dependent erythrocyte AChE inhibition, which was then compared to available in vivo toxicity data in rats and humans.[8],[39]\n(§2) BMD modeling was used to derive POD values from the predicted in vivo dose-dependent data sets for rats and humans. A BMD value resulting in a 10% benchmark response (BMR) change with lower 95% confidence limit was defined as BMDL10, and the obtained values for rats and humans were evaluated against the reported NOAELs.[1],[11]−[13] Details and results of BMD analysis are provided in the Supporting Information. […]\nBMD modeling was used to derive POD values from the predicted in vivo dose-response curves for rats and humans. The EFSA web-tool (https://efsa.openanalytics.eu/) integrated with the R package PROAST (version 70.0) developed by the Dutch National Institute for Public Health and the Environment (RIVM) was used for the BMD analysis. A BMD value resulting in a 10% benchmark response (BMR) change with lower 95% confidence limit was defined as BMDL10. Briefly, the continuous data were fitted to a set of models (Exponential, Hill, Inverse Exponential, and Log-Normal family models), and all fitted models excluding the FULL and NULL models were used for model averaging via a weighted average model. […]"}, "erythrocyte AChE [2]": {"test_system": "erythrocyte AChE", "conditions": "rat, cited from earlier work"}, "[3]": {"conditions": "humans, oral exposure; cited from earlier work"}, "[4]": {"conditions": "rats, oral exposure; cited from earlier work"}, "erythrocyte AChE [5]": {"test_system": "erythrocyte AChE", "assay": "PBK modeling-facilitated QIVIVE and BMD analysis, rat", "conditions": "erythrocyte AChE inhibition, acute oral FNT exposure", "method": "as §1, §2\nBMD modeling was used to derive POD values from the predicted in vivo dose-response curves for rats and humans. […]"}, "erythrocyte AChE [6]": {"test_system": "erythrocyte AChE", "assay": "Reported NOAELs from in vivo rat toxicity studies", "method": "Acute exposure to FNT will cause neurotoxic symptoms in mammals due to AChE inhibition and subsequent acetylcholine accumulation at synaptic clefts.[10] Several no-observed-adverse-effect levels (NOAELs) derived from different in vivo rat or human toxicity data sets have been reported by different organizations, even though the same endpoint (erythrocyte AChE inhibition) was chosen. Specifically, NOAELs of 0.25 and 1.3 mg/kg BW for rats have been set by the US Environmental Protection Agency (US EPA)[11] and European Food Safety Authority (EFSA),[1] respectively, and NOAELs of 0.33 and 0.36 mg/kg BW for humans have been derived by Australian Pesticides and Veterinary Medicines Authority (APVMA)[12] and the Joint Food and Agriculture Organization of the United Nations/World Health Organization Meeting on Pesticide Residues (JMPR),[13] respectively. […]\nA NOAEL of 1.3 mg/kg BW was reported by EFSA[1] from a 90 day rat study[44] considering the impaired body weight gain and reduction in erythrocyte and brain cholinesterase activity as the critical effects. The US EPA[11] reported a 5.2-fold lower NOAEL (0.25 mg/kg BW) based on the measured erythrocyte AChE inhibition after 2 weeks of FNT dosing in a 92 week rat study.[45] […]"}, "erythrocyte AChE [7]": {"test_system": "erythrocyte AChE", "conditions": "cited from earlier work"}}, "note": "Values joined by “and” are separate entries in the source; they are usually repeats but may differ in a detail not shown here. Identical values can stand only once. Like-named read-outs stand apart in the source and are kept apart here."}
{"compound": "COP(=S)(OC)Oc1ccc([N+](=O)[O-])c(C)c1", "note": "[FNT, O,O-dimethyl O-4-nitro-m-tolyl phosphorothioate]", "values": [{"measurement": "predicted POD for humans, fold lower than that of rats", "setting": "erythrocyte AChE [1]; BMDL10 rat vs human", "value": 5, "unit": "fold"}, {"measurement": "predicted BMDL10 (POD)", "setting": "erythrocyte AChE [1]; human, erythrocyte AChE inhibition, acute oral FNT exposure, 10% BMR, lower 95% confidence limit", "value": 0.26, "unit": "mg/kg BW"}, {"measurement": "BMDU10", "setting": "erythrocyte AChE [1]; human, erythrocyte AChE inhibition, acute oral FNT exposure, upper confidence limit", "value": 0.66, "unit": "mg/kg BW"}, {"measurement": "reported NOAEL", "setting": "erythrocyte AChE [2]; EFSA, 90 day rat study, body weight gain and erythrocyte and brain cholinesterase activity", "value": "1.3 mg/kg BW and 1.30 mg/kg BW"}, {"measurement": "reported NOAEL", "setting": "erythrocyte AChE [2]; US EPA, erythrocyte AChE inhibition after 2 weeks of dosing in a 92 week rat study", "value": 0.25, "unit": "mg/kg BW"}, {"measurement": "fraction of the dose absorbed (Fa)", "setting": "[3]", "value": 0.7}, {"measurement": "fraction of the dose absorbed (Fa)", "setting": "[4]", "value": 0.9}, {"measurement": "predicted BMDL10 (POD)", "setting": "erythrocyte AChE [5]; 10% BMR, lower 95% confidence limit", "value": 1.30, "unit": "mg/kg BW"}, {"measurement": "BMDU10", "setting": "erythrocyte AChE [5]; upper confidence limit", "value": 1.71, "unit": "mg/kg BW"}, {"measurement": "US EPA rat NOAEL, fold lower than EFSA rat NOAEL", "setting": "erythrocyte AChE [6]", "value": 5.2, "unit": "fold"}, {"measurement": "acute reference dose (ARfD)", "setting": "erythrocyte AChE [7]; JMPR", "value": 0.04, "unit": "mg/kg BW/day"}, {"measurement": "acute reference dose (ARfD)", "setting": "erythrocyte AChE [7]; US EPA", "value": 0.0025, "unit": "mg/kg BW/day"}]}
